Literature values as cited in US20240264159A1 (priority 2021, published 2024).

Tested on: SARS-CoV-2
Settings: Bewley et al., 2021; cited from earlier work

heparin
inhibition of SARS-CoV-2 entry into cells: inhibit SARS-CoV-2 entry into cells
